The target in one experiment is mTOR (Homo sapiens, UniProt P42345). As to conditions: cited from earlier work.
The test system of experiment [1] is DU145 prostate cancer-derived xenograft tumors. Put plainly: DU145 xenograft PD, western blot. The experiment is classed as in vivo, mice. Conditions: docetaxel 20 mpk i.p. single dose, tumors harvested Day 4. The text has this: (§1) For the PD studies described in FIGS. 6A-B and FIGS. 9 A-B, nu/nu female mice were inoculated with 8×10^6 DU145 or 5×10^6 BxPC-3 cells, respectively, in 1:1 Matrigel® suspension. […] Tumor lysates were generated and subjected to western blot analysis.
A general note: A western blot detects proteins with antibodies after separation by electrophoresis.

The next experiment relates to CAKI-1 xenografts. Put plainly: CAKI-1 xenograft PD, western blot. The experiment is classed as in vivo, mice. Conditions: single agent; MM-141 30 mpk i.p. or everolimus 10 mpk orally, 2 doses; tumors harvested 24 hours after second dose. The protocol:
For the PD study results shown in FIGS. 3A-B and FIGS. 5A-C, NOD/SCID female mice were inoculated with 12×10^6 CAKI-1 or 10×10^6 SK-ES-1 cells, respectively, in 1:1 Matrigel® suspension. […] Tumors were harvested 24 hours after the second dose of drug; lysates were generated and subjected to western blot analysis.

Experiment [2] relates to CFPAC-1 human pancreatic cancer cells. Nature of the experiment: HRG mRNA expression by real time PCR. As to conditions: 24 hours. The experiment is classed as cell-based. The protocol:
CFPAC-1 human pancreatic cancer cells were serum-starved by plating the cells in 2% serum-containing medium overnight, followed by treatment with vehicle, 500 nM gemcitabine, or 50 nM paclitaxel for 24 hours. Post-treatment, cell lysates were harvested, mRNA extracted, cDNA generated and changes in HRG mRNA expression evaluated by real time PCR. Bar graphs represent mean HRG mRNA expression relative to the geometric mean of three housekeeping genes (protein phosphatase 2 catalytic subunit alpha (PPP2CA), ribosomal protein L4 (RPL4), and glucuronidase beta (GUSB)), normalized to vehicle control.
Background: In qPCR the cycle at which signal appears reflects the starting amount.

Experiment [3] has as its system BxPC-3 derived xenograft tumors. Nature of the experiment: BxPC-3 xenograft PD, western blot. The experiment is classed as in vivo, mice. Conditions: gemcitabine 150 mpk i.p. Day 0, 6; tumors harvested Day 7.
From the text: as §1

The test system of experiment [4] is CFPAC-1 pancreatic cancer cells. Put plainly: pAKT (Ser473) ELISA after chemotherapy and ligand stimulation. The experiment is classed as cell-based, human. As to conditions: then HRG 5 nM or IGF-1 50 nM 15 minutes. As for the experimental part:
CFPAC-1 pancreatic cancer cells were seeded at 65% confluence in 10% serum-containing medium on 96-well plates overnight. […] Following incubation, cells were treated with (FIG. 24A) HRG (5 nM) or (FIG. 24B) IGF-1 (50 nM) for 15 minutes, where indicated. After treatment, cells were harvested and protein lysates generated. Changes in pAKT (Ser473) levels across all treatments were evaluated by pAKT ELISA, respectively. FIGS. 24(A-B) are bar graphs showing pAKT levels relative to ligand alone stimulated signals, which were normalized to 1.
CFPAC-1 pancreatic cancer cells were seeded at 65% confluence in 10% serum-containing medium on 96-well plates overnight. […] Following incubation, cells were treated with (FIG. 25A) HRG (5 nM) or (FIG. 25B) IGF-1 (50 nM) for 15 minutes, where indicated. After treatment, cells were harvested and protein lysates generated. Changes in pAKT (Ser473) levels across all treatments were evaluated by pAKT ELISA, respectively. FIGS. 25(A-B) are bar graphs showing pAKT levels relative to ligand alone stimulated signals, which were normalized to 1.

Experiment [5] relates to HepG2 hepatocellular carcinoma cells. Nature of the experiment: HepG2 western blot, sorafenib with or without MM-141. The experiment is classed as cell-based. Conditions: sorafenib 5 μM, 2 hours. As for the experimental part: HepG2 cells were plated on 12 well dishes (3×10^5 cells per well) in 10% serum-containing media and incubated overnight. […] Following treatment, cells were harvested in lysis buffer containing protease and phosphatase inhibitors and analyzed by western blotting.

“Also recorded” adds a separate entry of the source.

As to `COc1ccc(-c2ccc3c(N4CCOC[C@@H]4C)nc(N4CCOC[C@@H]4C)nc3n2)cc1CO` [AZD8055], the “selectivity against PI3K isoforms and ATM/DNA-PK” value at mTOR is ~1,000 fold.
In the case of `CC(=O)O[C@@]12CO[C@@H]1C[C@H](O)[C@@]1(C)C(=O)[C@H](O)C3=C(C)[C@@H](OC(=O)[C@H](O)[C@@H](NC(=O)OC(C)(C)C)c4ccccc4)C[C@@](O)([C@@H](OC(=O)c4ccccc4)[C@H]21)C3(C)C` [docetaxel, Docetaxel], in experiment [1], the “ErbB3 protein expression level” value is on record as “up-regulated” and the “IGF-1R protein expression level” value is on record as “up-regulated”.
Turning to `CO[C@H]1C[C@@H]2CC[C@@H](C)[C@@](O)(O2)C(=O)C(=O)N2CCCC[C@H]2C(=O)O[C@H]([C@H](C)C[C@@H]2CC[C@@H](OCCO)[C@H](OC)C2)CC(=O)[C@H](C)/C=C(\C)[C@@H](O)[C@@H](OC)C(=O)[C@H](C)C[C@H](C)/C=C/C=C/C=C/1C` [everolimus, Everolimus, reference compound], in the experiment with CAKI-1 xenografts, the “total ErbB2” value is “upregulation” and the “total IGF-1R” value was “upregulation”.
Take `Nc1ccn([C@@H]2O[C@H](CO)[C@@H](O)C2(F)F)c(=O)n1` [gemcitabine, Gemcitabine]: in experiment [2] (500 nM gemcitabine), the “HRG mRNA increase relative to vehicle control” value is reported as “about 22 fold”. Further, in experiment [3], the “total ErbB3” value was “up-regulation and activation”; the “total IGF-1R” value was “up-regulation and activation”. For the same compound, in experiment [4] (gemcitabine 1 μM 24 hours), the “sensitivity to ligands, pAKT (Ser473)” value was “increased sensitivity to HRG and IGF-1”.
Take `CC(=O)O[C@H]1C(=O)[C@@]2(C)[C@H]([C@H](OC(=O)c3ccccc3)[C@]3(O)C[C@H](OC(=O)[C@H](O)[C@@H](NC(=O)c4ccccc4)c4ccccc4)C(C)=C1C3(C)C)[C@]1(OC(C)=O)CO[C@@H]1C[C@@H]2O` [paclitaxel, Paclitaxel, reference compound]: the “HRG mRNA relative to vehicle control” value in experiment [2] (50 nM paclitaxel) is “at least doubles”. Also, the “sensitivity to ligands, pAKT (Ser473)” value in experiment [4] (paclitaxel 100 nM 24 hours) is “increased sensitivity to IGF-1”.
Regarding `CNC(=O)c1cc(Oc2ccc(NC(=O)Nc3ccc(Cl)c(C(F)(F)F)c3)cc2)ccn1` [sorafenib, Sorafenib], in experiment [5], the ErbB3 level result was “up-regulated; also recorded: upregulation of ErbB3 activity” and the pAKT level result is given as “up-regulated”.

These data come from patent publication US20170096492A1, “DOSAGE AND ADMINISTRATION OF ANTI-IGF-1R, ANTI-ErbB3 BISPECIFIC ANTIBODIES, USES THEREOF AND METHODS OF TREATMENT [sequence]” (Merrimack Pharmaceuticals, Inc., priority 2014, published 2017).
